Experimental data reported in patent publication US20250270191A1, “QUINOLONE BCL6 BIFUNCTIONAL DEGRADERS” (Treeline Biosciences, Inc., priority 2022, published 2025).

These compounds were tested against T1, Human BCL6 protein (N-terminal HiBiT tagged BCL6 in HT1080 cells) (Homo sapiens, UniProt P41182+Q96SW2) (assay: HiBiT based BCL6 degradation assay). Conditions: HT1080 cells expressing N-terminal HiBiT tagged BCL6; 5 hours incubation; BCL6 degradation normalized with DMSO control.
T1 construct: Human BCL6 protein coding open reading frame; expressed in transfected cells; host or cells: HT1080 (ATCC CCL-121), stably transduced with lentivirus pLV-UBC-N-HiBiT-BCL6-PGK-puro
Assay type: cell-based
Description: Human BCL6 protein coding open reading frame fused with N-terminal HiBiT coding sequence was synthesized from Integrated DNA Technologies (IDT). Next, the N-HiBiT-BCL6 sequence was cloned into pLV-UBC-PGK-Puro, a lentivirus plasmid purchased from Vectorbuilder, to generate pLV-UBC-N-HiBiT-BCL6-PGK-puro. Lentiviral particles were generated from Lenti-X™ 293T cells (Clontech) by co-transfection of pLV-UBC-N-HiBiT-BCL6-PGK-puro plasmids and lentiviral packaging plasmid mix (Cellecta). HT1080 [HT1080] (ATCC CCL-121) cells were infected with the lentivirus, and HT1080 cells stably integrated with the lentiviral vectors were established by incubation with 1 μg/mL puromycin (Thermofisher).
HT1080 cells expressing N-terminal HiBiT tagged BCL6 were dispensed into a 384-well plate pre-spotted with compounds at varying concentrations. Five thousand cells were seeded into each well in 40 μL of RPMI 1640 media plus 10% Fetal Bovine Serum (10082-147, Thermofisher). After 5 hours of incubation at 37° C. with 5% CO2, 30 μL of the NANO-GLO® HiBiT Lytic Detection System working solution (Promega) was added to each well and incubated at room temperature for 15 min. After incubation, luminescence was read on a PHERAstar FSX Plate Reader (BMG). BCL6 degradation at each indicated concentration was normalized with DMSO control. The BCL6 degradation curves were plotted using a four-parameter logistic model.

| Structure (SMILES) | Ymin (5 hr) |
| --- | --- |
| CNC(=O)COc1cc2cc(Nc3nc(N4CCC[C@H](CN(C)c5ccc6c(C7CCC(=O)NC7=O)nn(C)c6c5)C4)ncc3Cl)ccc2n(C)c1=O (stereo partly drawn) [Compound 312a, 2-((6-((5-chloro-2-((3R)-3-(((3-(2,6-dioxopiperidin-3-yl)-1-methyl-1H-indazol-6-yl)(methyl)amino)methyl)piperidin-1-yl)pyrimidin-4-yl)amino)-1-methyl-2-oxo-1,2-dihydroquinolin-3-yl)oxy)-N-methylacetamide] | ++ (50% < Ymin ≤ 70%) |
| CNC(=O)COc1cc2cc(Nc3nc(N4CCN(CC5CCN(c6ccc7c(C8CCC(=O)NC8=O)nn(C)c7c6)CC5)[C@@H](C)C4)ncc3Cl)ccc2n(C)c1=O (stereo partly drawn) [Compound 309b, 2-((6-((5-chloro-2-((3S)-4-((1-(3-(2,6-dioxopiperidin-3-yl)-1-methyl-1H-indazol-6-yl)piperidin-4-yl)methyl)-3-methylpiperazin-1-yl)pyrimidin-4-yl)amino)-1-methyl-2-oxo-1,2-dihydroquinolin-3-yl)oxy)-N-methylacetamide] | +++ (25% < Ymin ≤ 50%) |
| CNC(=O)COc1cc2cc(Nc3nc(N4CCN(C[C@H]5CCN(c6cccc7c(C8CCC(=O)NC8=O)nn(C)c67)C5)CC4)ncc3Cl)ccc2n(C)c1=O (stereo partly drawn) [Compound 305a, 2-((6-((5-chloro-2-(4-(((3R)-1-(3-(2,6-dioxopiperidin-3-yl)-1-methyl-1H-indazol-7-yl)pyrrolidin-3-yl)methyl)piperazin-1-yl)pyrimidin-4-yl)amino)-1-methyl-2-oxo-1,2-dihydroquinolin-3-yl)oxy)-N-methylacetamide] | +++ (25% < Ymin ≤ 50%) |
| CNC(=O)COc1cc2cc(Nc3nc(N4CC5(CCC(Nc6cccc7c(C8CCC(=O)NC8=O)nn(C)c67)CC5)C4)ncc3Cl)ccc2n(C)c1=O (centres unmarked) [Compound 342, 2-((6-((5-chloro-2-(7-((3-(2,6-dioxopiperidin-3-yl)-1-methyl-1H-indazol-7-yl)amino)-2-azaspiro[3.5]nonan-2-yl)pyrimidin-4-yl)amino)-1-methyl-2-oxo-1,2-dihydroquinolin-3-yl)oxy)-N-methylacetamide] | +++ (25% < Ymin ≤ 50%) |
| CNC(=O)COc1cc2cc(Nc3nc(N4CCC[C@H](CCNc5ccc6c(C7CCC(=O)NC7=O)nn(C)c6c5)C4)ncc3Cl)ccc2n(C)c1=O (single isomer, unassigned) [Compound 290a] | ++ (50% < Ymin ≤ 70%) |
| CNC(=O)COc1cc2cc(Nc3nc(NC[C@@H]4CCCN(c5ccc6c(C7CCC(=O)NC7=O)nn(C)c6c5)C4)ncc3Cl)ccc2n(C)c1=O (stereo partly drawn) [Compound 295b, 2-((6-((5-chloro-2-((((3S)-1-(3-(2,6-dioxopiperidin-3-yl)-1-methyl-1H-indazol-6-yl)piperidin-3-yl)methyl)amino)pyrimidin-4-yl)amino)-1-methyl-2-oxo-1,2-dihydroquinolin-3-yl)oxy)-N-methylacetamide] | ++ (50% < Ymin ≤ 70%) |
| CNC(=O)COc1cc2cc(Nc3nc(N4CCN(CC5CCC6(CC5)CN(c5ccc7c(C8CCC(=O)NC8=O)nn(C)c7c5)C6)CC4)ncc3Cl)ccc2n(C(C)C)c1=O (centres unmarked) [Compound 298, 2-((6-((5-chloro-2-(4-((2-(3-(2,6-dioxopiperidin-3-yl)-1-methyl-1H-indazol-6-yl)-2-azaspiro[3.5]nonan-7-yl)methyl)piperazin-1-yl)pyrimidin-4-yl)amino)-1-isopropyl-2-oxo-1,2-dihydroquinolin-3-yl)oxy)-N-methylacetamide] | +++ (25% < Ymin ≤ 50%) |
| CNC(=O)COc1cc2cc(Nc3nc(N4CCC(CC5CCN(c6cccc7c(C8CCC(=O)NC8=O)nn(C)c67)C5)CC4)ncc3Cl)ccc2n(C)c1=O (centres unmarked) [Compound 320, 2-((6-((5-chloro-2-(4-((1-(3-(2,6-dioxopiperidin-3-yl)-1-methyl-1H-indazol-7-yl)pyrrolidin-3-yl)methyl)piperidin-1-yl)pyrimidin-4-yl)amino)-1-methyl-2-oxo-1,2-dihydroquinolin-3-yl)oxy)-N-methylacetamide] | +++ (25% < Ymin ≤ 50%) |
| CNC(=O)COc1cc2cc(Nc3nc(N4CCN(C[C@@H]5CCN(c6ccc7c(C8CCC(=O)NC8=O)nn(C)c7c6)C5)CC4)ncc3Cl)ccc2n(C)c1=O (stereo partly drawn) [Compound 306b, 2-((6-((5-chloro-2-(4-(((3S)-1-(3-(2,6-dioxopiperidin-3-yl)-1-methyl-1H-indazol-6-yl)pyrrolidin-3-yl)methyl)piperazin-1-yl)pyrimidin-4-yl)amino)-1-methyl-2-oxo-1,2-dihydroquinolin-3-yl)oxy)-N-methylacetamide] | ++++ (Ymin ≤ 25%) |
| CNC(=O)COc1cc2cc(Nc3nc(N4CCC(CN5CCN(C(=O)c6cccc(C7CCC(=O)NC7=O)c6)CC5)CC4)ncc3Cl)ccc2n(C)c1=O (centres unmarked) [Compound 314, 2-((6-((5-chloro-2-(4-((4-(3-(2,6-dioxopiperidin-3-yl)benzoyl)piperazin-1-yl)methyl)piperidin-1-yl)pyrimidin-4-yl)amino)-1-methyl-2-oxo-1,2-dihydroquinolin-3-yl)oxy)-N-methylacetamide] | ++ (50% < Ymin ≤ 70%) |
| CNC(=O)COc1cc2cc(Nc3nc(N4CCC[C@H](CNc5ccc6c(C7CCC(=O)NC7=O)nn(C)c6c5)C4)ncc3Cl)ccc2n(C)c1=O (stereo partly drawn) [Compound 261b, 2-((6-((5-chloro-2-((3R)-3-(((3-(2,6-dioxopiperidin-3-yl)-1-methyl-1H-indazol-6-yl)amino)methyl)piperidin-1-yl)pyrimidin-4-yl)amino)-1-methyl-2-oxo-1,2-dihydroquinolin-3-yl)oxy)-N-methylacetamide] | +++ (25% < Ymin ≤ 50%) |
| CNC(=O)COc1cc2cc(Nc3nc(NC[C@@H]4CCCN(c5cccc6c(C7CCC(=O)NC7=O)nn(C)c56)C4)ncc3Cl)ccc2n(C)c1=O (stereo partly drawn) [Compound 303a, 2-((6-((5-chloro-2-((((3S)-1-(3-(2,6-dioxopiperidin-3-yl)-1-methyl-1H-indazol-7-yl)piperidin-3-yl)methyl)amino)pyrimidin-4-yl)amino)-1-methyl-2-oxo-1,2-dihydroquinolin-3-yl)oxy)-N-methylacetamide] | ++ (50% < Ymin ≤ 70%) |
| CNC(=O)COc1cc2cc(Nc3nc(NC[C@H]4CC[C@H](Nc5ccc6c(C7CCC(=O)NC7=O)nn(C)c6c5)CC4)ncc3Cl)ccc2n(C)c1=O (some centres unmarked) [Compound 289b, 2-((6-((5-chloro-2-((((1r,4r)-4-((3-(2,6-dioxopiperidin-3-yl)-1-methyl-1H-indazol-6-yl)amino)cyclohexyl)methyl)amino)pyrimidin-4-yl)amino)-1-methyl-2-oxo-1,2-dihydroquinolin-3-yl)oxy)-N-methylacetamide] | ++++ (Ymin ≤ 25%) |
| CNC(=O)COc1cc2cc(Nc3nc(N4CCC(CNc5ccc(C6CCC(=O)NC6=O)cc5)CC4)ncc3Cl)ccc2n(C)c1=O (centres unmarked) [Compound 265, 2-((6-((5-chloro-2-(4-(((4-(2,6-dioxopiperidin-3-yl)phenyl)amino)methyl)piperidin-1-yl)pyrimidin-4-yl)amino)-1-methyl-2-oxo-1,2-dihydroquinolin-3-yl)oxy)-N-methylacetamide] | ++ (50% < Ymin ≤ 70%) |
| CNC(=O)COc1cc2cc(Nc3nc(N4C5CCC4CN(CC4CCN(c6cccc7c(C8CCC(=O)NC8=O)nn(C)c67)CC4)C5)ncc3Cl)ccc2n(C)c1=O (centres unmarked) [Compound 325, 2-((6-((5-chloro-2-(3-((1-(3-(2,6-dioxopiperidin-3-yl)-1-methyl-1H-indazol-7-yl)piperidin-4-yl)methyl)-3,8-diazabicyclo[3.2.1]octan-8-yl)pyrimidin-4-yl)amino)-1-methyl-2-oxo-1,2-dihydroquinolin-3-yl)oxy)-N-methylacetamide] | +++ (25% < Ymin ≤ 50%) |
| CNC(=O)COc1cc2cc(Nc3nc(NCc4ccc(CNc5ccc6c(C7CCC(=O)NC7=O)nn(C)c6c5)cc4)ncc3Cl)ccc2n(C)c1=O (centres unmarked) [Compound 315, 2-((6-((5-chloro-2-((4-(((3-(2,6-dioxopiperidin-3-yl)-1-methyl-1H-indazol-6-yl)amino)methyl)benzyl)amino)pyrimidin-4-yl)amino)-1-methyl-2-oxo-1,2-dihydroquinolin-3-yl)oxy)-N-methylacetamide] | ++ (50% < Ymin ≤ 70%) |
| CNC(=O)COc1cc2cc(Nc3nc(N4CCN(CC5CCN(c6ccc7c(C8CCC(=O)NC8=O)nn(C)c7c6)CC5)CC4)ncc3Cl)ccc2n(C(C)C)c1=O (centres unmarked) [Compound 108, 2-((6-((5-chloro-2-(4-((1-(3-(2,6-dioxopiperidin-3-yl)-1-methyl-1H-indazol-6-yl)piperidin-4-yl)methyl)piperazin-1-yl)pyrimidin-4-yl)amino)-1-isopropyl-2-oxo-1,2-dihydroquinolin-3-yl)oxy)-N-methylacetamide] | +++ (25% < Ymin ≤ 50%) |
